In US20130309238A1, “SIGNAL TRANSDUCTION PATHWAY MODULATION” (NEWCASTLE INNOVATION LIMITED, priority 2010, published 2013):

Tests used:
HDM-allergic mice [1] = experiment: AHR measurement in house dust mite (HDM)-induced allergic airways disease; type: in vivo, BALB/c mice; settings: HDM-sensitized and challenged mice; treatment during allergen challenge
Experimental: Mice were sensitized and challenged by exposing them intranasally to house dust mite (HDM) (50 mcg daily at day 0, 1, and 2 followed by 5×5 mcg daily from day 14 to day 17 delivered in 50 μl of sterile saline). The single dose of HDM employed in initial studies was 50 mcg/50 μl of sterile saline. Non-sensitized mice received sterile saline only.
AHR was assessed invasively in separate groups of anesthetized mice by measurement of total lung resistance and dynamic compliance. Percentage increase over baseline (water) in response to nebulised methacholine was calculated.
(§1) Specifically, allergic mice were treated with a commercially available (Ambion) in-vitro validated small interfering (si)RNA directed against Midline-1 (SEQ ID NO:3) (MID1 siRNA) or a scrambled nonsense siRNA (control) following previously established protocols. BALB/c mice were anesthetised with isoflurane before being sensitised with the intranasal administration of either 50 μg House Dust Mite antigen (HDM) in 50 μl of sterile saline or 50 μl of sterile saline in control groups. This sensitisation was repeated at days 1 and 2 following initial sensitisation. On day 14 following initial sensitisation the mice were again anesthetised with isoflurane before receiving intranasal challenge with 5 μg of HDM in […] of sterile water. This challenge dosage was repeated daily from day 14 through 17. Mice received intranasal administration of maked Mid-1 siRNA or scramble control in 25 μl of saline under isoflurane anaesthesia on days 13, 15 and 17, through the period of HDM challenge. On day 18, 24 hrs after the final HDM challenge, the mice were sacrificed with an excess dose of sodium pentobarbitone administered intraperitoneally (200 μl total volume).

HDM-allergic mice [2] = experiment: Airway inflammation, mucus-producing cells and BALF cells in HDM-induced allergic airways disease; type: in vivo, BALB/c mice
Experimental: as §1, with “Mice were sensitized and challenged by exposing them intranasally to house dust mite (HDM) (50 mcg daily at day 0, 1, and 2 followed by 5×5 mcg daily from day 14 to day 17 delivered in 50 μl of sterile saline). The single dose of HDM employed in initial studies was 50 mcg/50 μl of sterile saline. Non-sensitized mice received sterile saline only. Lung tissue was stained, cells identified by morphological criteria, and quantitated by counting ten high power fields (HPFs) in each slide. […] Specifically,” for “Specifically,”

sphingosine kinase 2 = sphingosine kinase 2 (Homo sapiens, UniProt Q9NRA0); settings: Don et al., 2007; cited from earlier work
PP2A [3] = target: T1, PP2A (Homo sapiens, UniProt P67775); experiment: PP2A activity in HDM-stimulated human bronchial epithelial cells (BEAS-2B); type: cell-based; settings: BEAS-2B + crude HDM extract, 24 hours; salbutamol 0.1, 1, 10 μM; mitoxantrone analogue 1, 5, 25 μg/ml; AAL(s) 0.5, 2 μM
T1 construct: endogenous in cells; host or cells: BEAS-2B
Experimental: • Activation of PP2A The inventors have examined the ability of known PP2A agonists to influence PP2A activity in human bronchial epithelial cells stimulated with crude house dust mite extract. Immortalised human bronchial epithelial cells (BEAS-2B) were seeded at 1×10^5 cells/well in 12-well tissue culture plates and allowed to reach 80% confluency. Cells were then treated with either salbutamol, a mitoxantrone analogue, or AAL(s), at a range of tolerable concentrations (0.1, 1 and 10 μM for salbutamol; 1, 5 and 25 μg/ml for the nitoxantrone analaogue; and 0.5 and 2 μM for AAL(s)). Simultaneously, cells were stimulated with crude House Dust Mite (HDM) extract and left for 24 hours. Cells were then collected, washed, lysed, and PP2A activity assayed (R&D Systems), measuring phosphatase activity when fed a synthetic substrate. PP2A activity was reduced upon HDM stimulation compared to the non-stimulated media only group (representing physiologically normal activity levels).

CCL20 = CCL20 expression/release in airway wall or lung homogenates of HDM-allergic mice; type: in vivo, BALB/c mice; settings: HDM-sensitized and challenged mice
Experimental: Total RNA was isolated with mirVana m/miRNA Isolation kit (Ambion) from lower airway tissue that was separated by blunt dissection allowing effective separation of the airway wall from the parenchyma (Mattes, 2009). quantitative RT-PCR (qRT-PCR) was performed with SYBR® Green (Invitrogen) using an Eppendorf […] (threshold cycle) quantification was performed using Eppendorf Realplex analysis software 2.2. Mouse mRNA expression was normalised to HPRT, human mRNA to GAPDH. Fold change was calculated using delta delta CT values relative to control groups.

[4] = in vivo; cited from earlier work
[5] = test system: ovalbumin-challenged mice; settings: OVA 3x a week for 3 months, AAL(S) daily
Text: (§2) The inventors then determined the ability of AAL(S) to protect against airway fibrosis in two mouse models, a chronic ovalbumin model of allergic airways disease and an acute bleomycin-induced fibrosis model.
Mice received ovalbumin (OVA)+alumn IP at day 0 and 2 weeks. Mice then received OVA 3× a week for 3 months. AAL treated mice received AAL(S) daily throughout the 3 month challenge period.

[6] = test system: sphingosine-1-phosphate receptors; settings: Don et al., 2007; cited from earlier work
bleomycin-treated mice = settings: bleomycin intratracheally, sacrificed after 23 days; AAL(S) daily
Text: as §2
In the bleomycin model, mice received bleomycin intratracheally and were sacrificed after 23 days. AAL(S) treated mice received AAL(S) daily post bleomycin administration.

PP2A [7] = target: PP2A (Mus musculus, UniProt P63330); settings: HDM-allergic mice, daily intranasal treatment
Experimental: PP2a activity was measured by R&D Systems PP2A DuoSet IC activity assay kit according to the manufacturer's instructions. This was performed on homogenized mouse lungs and harvested BEAS-2B cells.

[8] = test system: peribronchial lymph node cells; experiment: Cytokine release from in-vitro HDM-stimulated peribronchial lymph node cells; type: in vivo, BALB/c mice; settings: HDM-sensitized and challenged mice
Experimental: Peribronchial lymph node cells were excised, filtered, and cultured in the presence or absence of 50 mcg/ml HDM (optimal concentration) for 6 days. IL-13, IL-5, and IFN-γ were determined by ELISA (BD Biosciences Pharmingen).

[9] = HDM-allergic and challenged mice

T1 sequence (P67775 whole entry): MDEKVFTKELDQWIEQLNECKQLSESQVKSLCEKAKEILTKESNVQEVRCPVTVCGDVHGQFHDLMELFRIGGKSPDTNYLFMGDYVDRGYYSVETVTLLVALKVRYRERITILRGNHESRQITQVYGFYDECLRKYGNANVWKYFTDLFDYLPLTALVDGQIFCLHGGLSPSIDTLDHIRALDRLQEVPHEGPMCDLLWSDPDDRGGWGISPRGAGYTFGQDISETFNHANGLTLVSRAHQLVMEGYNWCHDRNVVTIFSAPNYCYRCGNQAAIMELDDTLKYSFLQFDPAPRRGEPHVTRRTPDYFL
T1 sequence (P30153 whole entry partner): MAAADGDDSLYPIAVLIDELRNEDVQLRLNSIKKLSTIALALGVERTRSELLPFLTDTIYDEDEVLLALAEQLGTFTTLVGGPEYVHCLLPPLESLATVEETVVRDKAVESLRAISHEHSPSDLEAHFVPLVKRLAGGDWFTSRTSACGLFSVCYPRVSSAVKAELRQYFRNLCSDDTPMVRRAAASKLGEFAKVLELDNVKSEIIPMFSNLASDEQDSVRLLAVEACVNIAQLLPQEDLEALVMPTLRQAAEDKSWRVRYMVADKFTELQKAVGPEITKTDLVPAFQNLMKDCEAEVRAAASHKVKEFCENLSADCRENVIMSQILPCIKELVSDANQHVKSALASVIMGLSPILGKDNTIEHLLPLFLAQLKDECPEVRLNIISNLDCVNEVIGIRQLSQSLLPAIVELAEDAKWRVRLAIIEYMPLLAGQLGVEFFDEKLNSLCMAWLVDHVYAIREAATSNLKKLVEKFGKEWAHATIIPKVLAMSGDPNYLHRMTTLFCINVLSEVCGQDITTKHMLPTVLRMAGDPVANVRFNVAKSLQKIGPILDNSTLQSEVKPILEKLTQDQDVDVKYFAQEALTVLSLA
Sequence of sphingosine kinase 2 (Q9NRA0 whole entry, species assumed): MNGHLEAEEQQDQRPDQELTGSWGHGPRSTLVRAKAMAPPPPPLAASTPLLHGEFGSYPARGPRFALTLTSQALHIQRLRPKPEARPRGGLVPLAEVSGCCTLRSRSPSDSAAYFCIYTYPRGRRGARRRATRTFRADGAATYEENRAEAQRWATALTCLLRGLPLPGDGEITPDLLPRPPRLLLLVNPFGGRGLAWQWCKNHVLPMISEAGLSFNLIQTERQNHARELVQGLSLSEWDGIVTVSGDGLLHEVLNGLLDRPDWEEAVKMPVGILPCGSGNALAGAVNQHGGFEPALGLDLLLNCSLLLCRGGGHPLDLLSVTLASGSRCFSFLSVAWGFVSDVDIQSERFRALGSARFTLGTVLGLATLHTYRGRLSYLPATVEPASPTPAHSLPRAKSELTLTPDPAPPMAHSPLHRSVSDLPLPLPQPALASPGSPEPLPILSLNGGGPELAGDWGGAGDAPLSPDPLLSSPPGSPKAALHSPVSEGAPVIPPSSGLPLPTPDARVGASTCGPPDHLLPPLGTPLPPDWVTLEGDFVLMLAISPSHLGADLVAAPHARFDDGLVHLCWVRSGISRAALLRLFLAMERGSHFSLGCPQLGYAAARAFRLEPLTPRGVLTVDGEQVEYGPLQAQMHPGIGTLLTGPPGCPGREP
Sequence of PP2A (Mus musculus, UniProt P63330) (P63330 whole entry): as the sequence (P67775 whole entry) above, with V5L counted along it
Sequence of PP2A (Mus musculus, UniProt P63330) (Q76MZ3 whole entry partner): as the sequence (P30153 whole entry partner) above, with S324T counted along it

Row | Compound | airways hyperresponsiveness (total lung resistance in response to inhaled methacholine) (HDM-allergic mice [1]) | eosinophils (BALF) (HDM-allergic mice [2]; [9]) | neutrophils (BALF) (HDM-allergic mice [2]; [9]) | phosphorylation by sphingosine kinase 2 (sphingosine kinase 2) | PP2A activity (phosphatase activity on synthetic substrate) (PP2A [3]) | airways inflammation (HDM-allergic mice [2]; HDM-sensitized and challenged mice, treatment during allergen challenge) | CCL20 release (levels in lung homogenates) (CCL20) | lymphopenia [4] | lung function (forced vital capacity and forced expiratory volume in 100 milliseconds) [5] | airways fibrosis (collagen deposition surrounding the airways) ([5]; wildtype BALB/c mice) | binding to sphingosine-1-phosphate receptors [6] | collagen deposition in airways (bleomycin-treated mice) | PP2A activity in the lungs (PP2A [7]) | Th2 cytokine release in allergen-stimulated peribronchial lymphnode cultures [8] | lymphocytes (BALF) (HDM-allergic mice [2]; [9])
1 | CCCCCCCCc1ccc(CCC(N)(CO)COP(=O)(O)O)cc1 (stereo not drawn) [pFTY720] | partial reduction | partial reduction | partial reduction | – | – | – | – | – | – | – | – | – | – | – | –
2 | CCCCCCCOc1ccc(CCC(C)(N)CO)cc1 [AAL(S), 2-amino-4-(4-heptyloyphenol)-2-methylbutanol] | precluded the development | – | – | cannot be phosphorylated | fully restored | precluded the development | reduced | does not cause lymphopenia | improved | protected | does not bind | protected | reactivates PP2A in the lungs | reduced | –
3 | CCCCCCCCc1ccc(CCC(N)(CO)CO)cc1 [FTY720] | reduced | reduced | reduced | – | – | – | reduced | – | – | – | – | – | – | – | reduced
4 | CC(C)(C)NCC(O)c1ccc(O)c(CO)c1 (stereo not drawn) [salbutamol] | – | – | – | – | restore PP2A activity to a significant level | – | – | – | – | – | – | – | – | – | –
